Laboratory results: publication PMC12362618, “Development of the First Small-Molecule Inhibitor Targeting Oncostatin M for Treatment of Breast Cancer” (Journal of Medicinal Chemistry, 2025)
pKd: −log10 of the molar value. Entries after “also recorded” stand apart in the source; their conditions may differ.

What was measured:
[1] = system: MCF-7-luc-OSM-overexpressing breast tumor cells; assay: ER+ orthotopic xenograft, survival and metastasis over 50 days; assay type: in vivo, athymic nu/nu mice
Description: To evaluate the effectiveness of SMI-10B13 against survivability and metastasis, we performed a related but separate experiment. As before, mice were treated with either vehicle or SMI-10B13 12 h prior to tumor cell injection and monitored for tumor growth while receiving treatment 3x weekly (Figure A). […] After 50 days, all mice were sacrificed, and metastases were evaluated with ex vivo imaging. […] Thus, for the first time, we have shown that an anti-OSM small molecule inhibitor may inhibit breast cancer progression and metastasis.
(§1) Seven- to eight-week-old athymic nu/nu mice were purchased from Jackson Laboratory and quarantined for 6 days. Twelve hours before tumor cell injection, the mice were grouped and injected intraperitoneally (i.p.) with 50 mg/kg of SMI-10B13 or vehicle (10% DMSO, 10% EtOH, 20% Cremophor EL, 60% propylene glycol; diluted in half with PBS). The following morning, MCF-7-Luc-flOSM cells (described above) were grown to 70–75% confluency, and the cells were concentrated to 4.0 × 10^7 cells/mL in PBS containing serum-free RPMI-1640. A 50 μL cell suspension was injected into the fourth mammary fat pad, resulting in 2.0 × 10^6 cells/injection. Mice were then injected (via i.p.) 3x weekly with SMI-10B13 or the vehicle control. Mice were also injected 1x weekly with D-luciferin (PerkinElmer; 122799–5) for bioluminescence detection for a period of 40–50 days, and 3x weekly for tumor growth via caliper measurement. Animals were sacrificed, and their serum and tumors were collected for analysis. Organs were harvested, and ex vivo imaging was performed to evaluate metastasis. All in vivo and ex vivo imaging was performed as previously described. All animal experiments were performed following the protocols evaluated and approved by the Boise State University Institutional Animal Care and Use Committee (IACUC) (Ethics Approval Number: AC23-043).

[2] = system: MCF-7-luc-OSM-overexpressing cells; assay type: in vivo
Description: To evaluate SMI-10B13 on OSM inhibition in vivo, athymic nu/nu mice were randomized and given equal dose of either vehicle or SMI-10B13 (50 mg/kg) 12 h before tumor cell injection. Mice were then injected with 2 × 10^6 cells in the fourth mammary fat pad and monitored for tumor growth over 40 days, receiving either vehicle or SMI-10B13 treatment 3x weekly and evaluated for tumor growth until the end point of the experiment (Figure A).
as §1

gp130 = target: T1, gp130 (Homo sapiens, UniProt P40189); assay: Fluorescence quenching check of SMI binding to gp130; conditions: data not shown
T1 construct: purchased R&D Systems 671-GP
T1 sequence (P40189 23-619 limits assumed): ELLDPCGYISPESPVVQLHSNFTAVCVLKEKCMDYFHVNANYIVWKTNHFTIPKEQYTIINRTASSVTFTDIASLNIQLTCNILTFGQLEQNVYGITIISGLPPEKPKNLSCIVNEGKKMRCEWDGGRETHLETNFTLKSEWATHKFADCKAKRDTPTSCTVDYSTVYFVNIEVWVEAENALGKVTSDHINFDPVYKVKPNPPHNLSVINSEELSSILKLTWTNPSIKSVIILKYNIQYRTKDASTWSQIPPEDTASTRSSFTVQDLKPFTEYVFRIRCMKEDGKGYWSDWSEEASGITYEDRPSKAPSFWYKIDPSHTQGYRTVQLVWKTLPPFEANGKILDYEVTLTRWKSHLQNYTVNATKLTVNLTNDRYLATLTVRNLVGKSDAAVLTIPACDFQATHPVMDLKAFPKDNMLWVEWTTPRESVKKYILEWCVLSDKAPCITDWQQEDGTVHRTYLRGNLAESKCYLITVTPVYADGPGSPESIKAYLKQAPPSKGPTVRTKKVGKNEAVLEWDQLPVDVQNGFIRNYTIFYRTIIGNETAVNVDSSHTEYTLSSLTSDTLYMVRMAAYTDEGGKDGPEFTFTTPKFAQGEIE

OSM = target: T2, OSM (Homo sapiens, UniProt P13725); design: method as in earlier report of the authors (Mass et al.); conditions: binds to OSM's site III pocket; ref earlier report of the authors (Mass et al.); read-out: dissociation constant (KD), previously described; cited from earlier work
T2 sequence (P13725 26-252): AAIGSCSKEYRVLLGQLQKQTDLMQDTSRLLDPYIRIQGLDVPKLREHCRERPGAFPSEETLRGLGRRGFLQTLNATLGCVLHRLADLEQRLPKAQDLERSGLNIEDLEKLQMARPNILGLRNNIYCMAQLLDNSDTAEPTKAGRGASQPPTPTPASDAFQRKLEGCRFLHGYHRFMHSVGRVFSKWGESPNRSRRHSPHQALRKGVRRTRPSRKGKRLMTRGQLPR

[3] = Aqueous solubility (comparison in words); assay type: physicochemical; conditions: compared to other analogs

**Q.** For O=C(O)/C=C/c1cc(-c2ccc3cc[nH]c3c2)c(-c2ccc3cc[nH]c3c2)o1 [SMI-10B13, (E)-3-(4,5-di(1H-Indol-6-yl)furan-2-yl)acrylic Acid], which “Survival (Kaplan-Meier) vs vehicle” value ([1]; 50 mg/kg i.p. 3x weekly, 50 days, p = 0.04) is on record?
**A.** improved survival; also recorded: prolonged survival; also recorded: increase survival

**Q.** And the “Lung metastases fluorescent intensity (ex vivo imaging)” value ([1]; 50 mg/kg i.p. 3x weekly, after 50 days)?
**A.** 41.9 × 10^5 intensity

**Q.** And the “Tumor size vs vehicle” value ([1]; 50 days experiment, end point)?
**A.** overall smaller tumors

**Q.** What about the “Lung metastasis intensity vs vehicle” value ([1]; ex vivo imaging, 50 days) of the same molecule?
**A.** reduction in intensity was not statistically significant; also recorded: trend toward significance in decreasing lung metastasis intensity

**Q.** What about the “Tumor size diameter (mm) at end point vs vehicle control” value ([2]; 50 mg/kg i.p. 3x weekly, 40 days, caliper) of the same molecule?
**A.** significant reduction in tumor mm size

**Q.** What about the “Bioluminescent tumor detection vs vehicle control” value ([2]; 50 mg/kg i.p. 3x weekly, 40 days, weekly imaging) of the same molecule?
**A.** significant reduction in bioluminescent detection

**Q.** And the “Signs of drug-related toxicity in mice” value ([2]; mouse, in vivo)?
**A.** none of the mice injected with SMI exhibited any signs of drug-related toxicity

**Q.** And the “Binding to gp130” value (gp130)?
**A.** does not bind to gp130

**Q.** With O=C(O)/C=C/c1cc(-c2ccc3c(c2)OCO3)c(-c2ccc3c(c2)OCO3)o1 [SMI-10B, (E)-3-(4,5-Bis(benzo[d][1,3]dioxol-5-yl)furan-2-yl)acrylic acid] as the molecule, how does the pKd (OSM) read?
**A.** > 4.89

**Q.** And the “Aqueous solubility” value [3]?
**A.** increased aqueous solubility compared to other analogs
